Measured values published in the supplement of paper PMC10307832.

Columns and labels:
Experiment in all cases: relative viability (nuclei count vs DMSO), 5 days (fraction); higher = more cells survive
Ponatinib = compound: Cc1ccc(C(=O)Nc2ccc(CN3CCN(C)CC3)c(C(F)(F)F)c2)cc1C#Cc1cnc2cccnn12 [Ponatinib]
Procedure, shortened: (§1)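 Lung cancer cell lines received five library-drug doses (not always all listed) spaced by √10, pinned on vehicle-anchored 1536-well plates after an overnight stay at 37 °C. Five days later, with no medium change, nuclei were Hoechst-stained, imaged at 4× and counted with MetaXpress. Viability is treated-well nuclei relative to vehicle-well nuclei, as a median across plates. Passing plates had control CV below 25% and at least one doubling.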

Pazopanib = compound: Cc1ccc(Nc2nccc(N(C)c3ccc4c(C)n(C)nc4c3)n2)cc1S(N)(=O)=O [Pazopanib]
Procedure, shortened: as §1

Ponatinib + Navitoclax = compound: Cc1ccc(C(=O)Nc2ccc(CN3CCN(C)CC3)c(C(F)(F)F)c2)cc1C#Cc1cnc2cccnn12 [Ponatinib] + CC1(C)CCC(c2ccc(Cl)cc2)=C(CN2CCN(c3ccc(C(=O)NS(=O)(=O)c4ccc(N[C@H](CCN5CCOCC5)CSc5ccccc5)c(S(=O)(=O)C(F)(F)F)c4)cc3)CC2)C1 [Navitoclax] (partner 0.5 µM)
Procedure, shortened: (§2)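 Five library-drug doses in √10 steps were combined with a fixed anchor-drug dose, or a single drug was given alone, by pin tool to lung cancer cell lines in 1536-well plates the day after seeding. Nuclei were stained and counted after 5 days. Relative viability is the nuclei count in treated wells over that in vehicle wells, taken as the median of duplicate plates.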

Ponatinib + Foretinib = compound: Cc1ccc(C(=O)Nc2ccc(CN3CCN(C)CC3)c(C(F)(F)F)c2)cc1C#Cc1cnc2cccnn12 [Ponatinib] + COc1cc2c(Oc3ccc(NC(=O)C4(C(=O)Nc5ccc(F)cc5)CC4)cc3F)ccnc2cc1OCCCN1CCOCC1 [Foretinib] (partner 0.25 µM)
Procedure, shortened: as §2

Row | Cell Line | relative viability (Ponatinib; 0.002 µM) | relative viability (Ponatinib; 0.006325 µM) | relative viability (Ponatinib; 0.06325 µM) | relative viability (Ponatinib; 0.2 µM) | relative viability (Pazopanib; 0.01 µM) | relative viability (Pazopanib; 0.03162 µM) | relative viability (Pazopanib; 0.1 µM) | relative viability (Pazopanib; 0.3162 µM) | relative viability (Pazopanib; 1 µM) | relative viability (Ponatinib + Navitoclax; first compound 0.002 µM) | relative viability (Ponatinib + Navitoclax; first compound 0.006325 µM) | relative viability (Ponatinib + Navitoclax; first compound 0.06325 µM) | relative viability (Ponatinib + Navitoclax; first compound 0.2 µM) | relative viability (Ponatinib + Foretinib; first compound 0.002 µM) | relative viability (Ponatinib + Foretinib; first compound 0.006325 µM) | relative viability (Ponatinib + Foretinib; first compound 0.06325 µM) | relative viability (Ponatinib + Foretinib; first compound 0.2 µM)
1 | ChaGo-K-1 | 0.872 | 0.988 | 1 | 0.88 | 0.927 | 1.01 | 1.04 | 0.99 | 0.978 | 0.914 | 1.18 | 1.05 | 0.954 | 0.868 | 0.923 | 0.959 | 0.832
2 | COR-L 105 | 1.01 | 0.933 | 1.18 | 1.05 | 1.08 | 0.91 | 0.95 | 1.1 | 1.14 | 0.832 | 0.8 | 0.832 | 0.955 | 0.882 | 1.15 | 1.23 | 1.3
3 | NCI-H1975 | 0.831 | 0.918 | 0.948 | 0.844 | 0.889 | 0.895 | 0.993 | 0.944 | 1.03 | 1.18 | 1.01 | 1.2 | 0.915 | 0.911 | 0.955 | 1.03 | 1.01
4 | Calu-6 | 0.987 | 0.967 | 1.02 | 0.905 | 0.99 | 1.07 | 1.04 | 1.01 | 0.974 | 0.828 | 0.682 | 0.941 | 0.717 | 0.849 | 0.867 | 0.931 | 0.816
5 | NCI-H1993 | 1.02 | 1.03 | 1.2 | 1.05 |  | 0.791 | 0.936 | 0.983 | 0.86 | 0.881 | 1.07 | 1.25 | 0.943 | 0.722 | 0.778 | 0.973 | 0.76
6 | SK-LU-1 | 0.943 | 1 | 1.07 | 0.928 | 0.939 | 1.09 | 1.08 | 1.05 | 1.08 | 0.702 | 0.792 | 0.902 | 0.453 | 0.852 | 0.795 | 0.826 | 0.63
7 | NCI-H23 | 0.862 | 1 | 1.15 | 0.833 | 0.858 | 1.04 | 1.03 | 1.02 | 1.29 | 0.762 | 0.828 | 0.852 | 0.781 | 0.949 | 1.04 | 1.04 | 0.832
8 | HCC-366 | 1.03 | 1.04 | 1.05 | 0.989 | 0.922 | 0.989 | 1.03 | 1 | 1.1 | 1.03 | 1.02 | 1.14 | 0.966 | 0.887 | 0.939 | 0.955 | 0.956
9 | EMC-BAC-2 | 0.821 | 0.973 | 1.04 | 0.822 |  | 0.977 | 0.93 | 1.03 | 1.04 | 1.06 | 1.07 | 1.19 | 1.11 | 0.965 | 0.989 | 1.06 | 0.986
10 | NCI-H3122 | 0.979 | 0.997 | 1.02 | 1.02 | 1.04 | 0.997 | 1.01 | 1.06 | 1.05 | 1.04 | 1.03 | 1.04 | 1.01 | 0.977 | 0.981 | 1 | 0.943
11 | SK-MES-1 | 0.944 | 1.06 | 1.15 | 1 | 0.946 | 0.987 | 1.04 | 1.05 | 1.05 | 1.25 | 1.12 | 1.3 | 1.19 | 0.856 | 1.08 | 1.25 | 0.959
12 | NCI-H2170 | 0.927 | 0.969 | 1 | 0.917 | 0.828 | 1.02 | 0.948 | 0.899 | 0.995 | 0.643 | 0.661 | 0.684 | 0.765 | 0.953 | 0.898 | 0.966 | 0.927
13 | EPLC-272H | 0.818 | 1.01 | 1.14 | 0.801 | 0.706 | 0.919 | 0.962 | 1.07 | 0.92 | 0.989 | 1.23 | 1.18 | 1.05 | 0.735 | 0.784 | 0.912 | 0.416
14 | EBC-1 | 0.926 | 1.05 | 1.16 | 0.924 | 1.01 | 1.05 | 0.978 | 0.956 | 1.09 | 0.504 | 0.534 | 0.358 | 0.304 | 0.106 | 0.0969 | 0.092 | 0.115
15 | NCI-H1915 | 0.906 | 1 | 0.986 | 0.971 | 0.915 | 1.02 | 0.995 | 0.961 | 0.894 | 0.779 | 0.795 | 0.772 | 0.746 | 1.03 | 1.12 | 0.996 | 1.01
16 | NCI-H647 | 0.818 | 1.05 | 1.09 | 0.769 | 0.885 | 1.08 | 0.895 | 0.956 | 1.13 | 1.04 | 1.07 | 1.21 | 0.935 | 1.12 | 1.01 | 1.24 | 1.08
17 | NCI-H441 | 0.899 | 0.925 | 1.07 | 0.855 | 0.931 | 1.05 | 0.982 | 0.905 | 0.958 | 0.638 | 0.42 | 0.554 | 0.596 | 1.14 | 0.836 | 1.01 | 0.986
18 | NCI-H1299 | 0.997 | 1.02 | 1.02 | 0.931 | 1.02 | 1.03 | 1.03 | 0.993 | 0.95 | 1.05 | 1.03 | 1.1 | 1.01 | 1.07 | 1.09 | 1.15 | 1.07
